Measured values taken from ChEMBL document CHEMBL5543097, “Synthesis and structure-activity relationships of novel 14-membered 2-fluoro ketolides with structural modification at the C11 position” (Eur J Med Chem, 2024).
≈ marks a conversion by molar mass, not a printed value.

Assays:
Streptococcus pyogenes = experiment: Antibacterial activity against erythromycin-resistant Streptococcus pyogenes ATCC 19615 assessed as inhibition of visible bacterial growth incubated for 18 hrs by broth microdilution method; type: functional
Streptococcus agalactiae [1] = experiment: Antibacterial activity against erythromycin-resistant Streptococcus agalactiae 19-9 assessed as inhibition of visible bacterial growth incubated for 18 hrs by broth microdilution method; type: functional
Streptococcus agalactiae [2] = experiment: Antibacterial activity against erythromycin-resistant Streptococcus agalactiae 19-8 assessed as inhibition of visible bacterial growth incubated for 18 hrs by broth microdilution method; type: functional
Streptococcus pneumoniae [3] = experiment: Antibacterial activity against erythromycin-resistant Streptococcus pneumoniae SPN19-14 assessed as inhibition of visible bacterial growth incubated for 18 hrs by broth microdilution method; type: functional
Streptococcus pneumoniae [4] = experiment: Antibacterial activity against erythromycin-resistant Streptococcus pneumoniae SPN19-13 assessed as inhibition of visible bacterial growth incubated for 18 hrs by broth microdilution method; type: functional
Streptococcus pneumoniae [5] = experiment: Antibacterial activity against erythromycin-resistant Streptococcus pneumoniae SPN19-8 assessed as inhibition of visible bacterial growth incubated for 18 hrs by broth microdilution method; type: functional
[6] = test system: Staphylococcus epidermidis; experiment: Antibacterial activity against erythromycin-resistant Staphylococcus epidermidis 19-11 assessed as inhibition of visible bacterial growth incubated for 18 hrs by broth microdilution method; type: functional
[7] = test system: Staphylococcus epidermidis; experiment: Antibacterial activity against erythromycin-resistant Staphylococcus epidermidis 19-9 assessed as inhibition of visible bacterial growth incubated for 18 hrs by broth microdilution method; type: functional
[8] = test system: Staphylococcus epidermidis; experiment: Antibacterial activity against erythromycin-resistant Staphylococcus epidermidis 19-8 assessed as inhibition of visible bacterial growth incubated for 18 hrs by broth microdilution method; type: functional
[9] = test system: Staphylococcus epidermidis; experiment: Antibacterial activity against erythromycin-resistant Staphylococcus epidermidis 19-6 assessed as inhibition of visible bacterial growth incubated for 18 hrs by broth microdilution method; type: functional
[10] = test system: Staphylococcus epidermidis; experiment: Antibacterial activity against erythromycin-resistant Staphylococcus epidermidis 19-4 assessed as inhibition of visible bacterial growth incubated for 18 hrs by broth microdilution method; type: functional
[11] = test system: Staphylococcus epidermidis; experiment: Antibacterial activity against erythromycin-resistant Staphylococcus epidermidis 19-5 assessed as inhibition of visible bacterial growth incubated for 18 hrs by broth microdilution method; type: functional
Moraxella catarrhalis [12] = experiment: Antibacterial activity against Moraxella catarrhalis BCA 19-5 assessed as inhibition of bacterial growth incubated for 24 hrs by CLSI based broth microdilution method; type: functional; conditions: Moraxella catarrhalis, BCA 19-5, 24 h, read-out: MIC
Moraxella catarrhalis [13] = experiment: Antibacterial activity against Moraxella catarrhalis BCA 19-6 assessed as inhibition of bacterial growth incubated for 24 hrs by CLSI based broth microdilution method; type: functional; conditions: Moraxella catarrhalis, BCA 19-6, 24 h, read-out: MIC
Moraxella catarrhalis [14] = experiment: Antibacterial activity against Moraxella catarrhalis BCA 19-31 assessed as inhibition of bacterial growth incubated for 24 hrs by CLSI based broth microdilution method; type: functional; conditions: BCA 19-31, 24 h
Haemophilus influenzae [15] = experiment: Antibacterial activity against Haemophilus influenzae HIN 19-15 assessed as inhibition of bacterial growth incubated for 20 to 24 hrs by CLSI based broth microdilution method; type: functional; conditions: time 20-24 hrs
Haemophilus influenzae [16] = experiment: Antibacterial activity against Haemophilus influenzae HIN 19-18 assessed as inhibition of bacterial growth incubated for 20 to 24 hrs by CLSI based broth microdilution method; type: functional; conditions: HIN 19-18, time 20-24 hrs
[17] = Cytotoxicity against mouse AML12 cells assessed as reduction in cell viability incubated for 48 hrs by MTT assay; type: toxicity, cell-based

SMILES: CC[C@H]1OC(=O)[C@@](C)(F)C(=O)[C@H](C)[C@@H](O[C@@H]2O[C@H](C)C[C@H](N(C)C)[C@H]2O)[C@](C)(OC)C[C@@H](C)C(=O)[C@H](C)[C@H]2N(CCCOC(=O)Nc3cc(C)cc(C)c3)C(=O)O[C@]12C
- MIC (Streptococcus pyogenes): < 0.03 µg/mL
- MIC (Streptococcus agalactiae [1]): 4 µg/mL (≈ 4.78 µM)
- MIC (Streptococcus agalactiae [2]): 0.06 µg/mL (≈ 0.0718 µM)
- MIC (Streptococcus pneumoniae [3]): 1 µg/mL (≈ 1.2 µM)
- MIC (Streptococcus pneumoniae [4]): 0.5 µg/mL (≈ 0.598 µM)
- MIC (Streptococcus pneumoniae [5]): 0.5 µg/mL (≈ 0.598 µM)
- MIC [6]: 0.25 µg/mL (≈ 0.299 µM)
- MIC [7]: 0.5 µg/mL (≈ 0.598 µM)
- MIC [8]: 0.25 µg/mL (≈ 0.299 µM)
- MIC [9]: 0.5 µg/mL (≈ 0.598 µM)
- MIC [10]: < 0.25 µg/mL
- MIC [11]: < 0.03 µg/mL
- MIC (Moraxella catarrhalis [12]): 1 µg/mL (≈ 1.2 µM)
- MIC (Moraxella catarrhalis [13]): 1 µg/mL (≈ 1.2 µM)
- MIC (Moraxella catarrhalis [14]): 0.5 µg/mL (≈ 0.598 µM)
- MIC (Haemophilus influenzae [15]): 16 µg/mL (≈ 19.1 µM)
- MIC (Haemophilus influenzae [16]): 16 µg/mL (≈ 19.1 µM)
- CC50 at 48 h [17]: 25.5 µM

SMILES: CC[C@H]1OC(=O)[C@@](C)(F)C(=O)[C@H](C)[C@@H](O[C@@H]2O[C@H](C)C[C@H](N(C)C)[C@H]2O)[C@](C)(OC)C[C@@H](C)C(=O)[C@H](C)[C@H]2N(CCCOC(=O)Nc3ccc(SC)cc3)C(=O)O[C@]12C
- MIC (Streptococcus pyogenes): < 0.03 µg/mL
- MIC (Streptococcus agalactiae [1]): 16 µg/mL (≈ 18.7 µM)
- MIC (Streptococcus agalactiae [2]): 0.03 µg/mL (≈ 0.0351 µM)
- MIC (Streptococcus pneumoniae [3]): 0.25 µg/mL (≈ 0.293 µM)
- MIC (Streptococcus pneumoniae [4]): 0.25 µg/mL (≈ 0.293 µM)
- MIC (Streptococcus pneumoniae [5]): 1 µg/mL (≈ 1.17 µM)
- MIC [6]: 0.125 µg/mL (≈ 0.146 µM)
- MIC [7]: 0.25 µg/mL (≈ 0.293 µM)
- MIC [8]: 0.125 µg/mL (≈ 0.146 µM)
- MIC [9]: 0.125 µg/mL (≈ 0.146 µM)
- MIC [10]: 0.125 µg/mL (≈ 0.146 µM)
- MIC [11]: 0.125 µg/mL (≈ 0.146 µM)
- MIC (Moraxella catarrhalis [12]): 0.5 µg/mL (≈ 0.585 µM)
- MIC (Moraxella catarrhalis [13]): 0.5 µg/mL (≈ 0.585 µM)
- MIC (Moraxella catarrhalis [14]): 0.125 µg/mL (≈ 0.146 µM)
- MIC (Haemophilus influenzae [15]): 16 µg/mL (≈ 18.7 µM)
- MIC (Haemophilus influenzae [16]): 8 µg/mL (≈ 9.37 µM)
- CC50 at 48 h [17]: 76.1 µM

SMILES: CCc1ccc(NC(=O)OCCCN2C(=O)O[C@]3(C)[C@@H](CC)OC(=O)[C@@](C)(F)C(=O)[C@H](C)[C@@H](O[C@@H]4O[C@H](C)C[C@H](N(C)C)[C@H]4O)[C@](C)(OC)C[C@@H](C)C(=O)[C@H](C)[C@@H]23)cc1
- MIC (Streptococcus pyogenes): < 0.03 µg/mL
- MIC (Streptococcus agalactiae [1]): 0.5 µg/mL (≈ 0.598 µM)
- MIC (Streptococcus agalactiae [2]): < 0.03 µg/mL
- MIC (Streptococcus pneumoniae [3]): < 0.03 µg/mL
- MIC (Streptococcus pneumoniae [4]): 0.06 µg/mL (≈ 0.0718 µM)
- MIC (Streptococcus pneumoniae [5]): 0.125 µg/mL (≈ 0.15 µM)
- MIC [6]: 0.03 µg/mL (≈ 0.0359 µM)
- MIC [7]: 0.125 µg/mL (≈ 0.15 µM)
- MIC [8]: < 0.03 µg/mL
- MIC [9]: < 0.03 µg/mL
- MIC [10]: < 0.03 µg/mL
- MIC [11]: < 0.03 µg/mL
- CC50 at 48 h [17]: 25.6 µM

SMILES: CC[C@H]1OC(=O)[C@@](C)(F)C(=O)[C@H](C)[C@@H](O[C@@H]2O[C@H](C)C[C@H](N(C)C)[C@H]2O)[C@](C)(OC)C[C@@H](C)C(=O)[C@H](C)[C@H]2N(CCCOC(=O)Nc3ccc(-c4ccccc4)cc3)C(=O)O[C@]12C
- MIC (Streptococcus pyogenes): < 0.03 µg/mL
- MIC (Streptococcus agalactiae [1]): 4 µg/mL (≈ 4.52 µM)
- MIC (Streptococcus agalactiae [2]): < 0.03 µg/mL
- MIC (Streptococcus pneumoniae [3]): 0.125 µg/mL (≈ 0.141 µM)
- MIC (Streptococcus pneumoniae [4]): 1 µg/mL (≈ 1.13 µM)
- MIC (Streptococcus pneumoniae [5]): 1 µg/mL (≈ 1.13 µM)
- MIC [6]: 0.5 µg/mL (≈ 0.566 µM)
- MIC [7]: 0.5 µg/mL (≈ 0.566 µM)
- MIC [8]: 0.25 µg/mL (≈ 0.283 µM)
- MIC [9]: 1 µg/mL (≈ 1.13 µM)
- MIC [10]: 0.125 µg/mL (≈ 0.141 µM)
- MIC [11]: < 0.03 µg/mL
- MIC (Moraxella catarrhalis [13]): 1 µg/mL (≈ 1.13 µM)
- MIC (Moraxella catarrhalis [14]): 1 µg/mL (≈ 1.13 µM)
- MIC (Haemophilus influenzae [15]): 32 µg/mL (≈ 36.2 µM)
- MIC (Haemophilus influenzae [16]): 8 µg/mL (≈ 9.05 µM)
- CC50 at 48 h [17]: 20.7 µM

SMILES: CC[C@H]1OC(=O)[C@@](C)(F)C(=O)[C@H](C)[C@@H](O[C@@H]2O[C@H](C)C[C@H](N(C)C)[C@H]2O)[C@](C)(OC)C[C@@H](C)C(=O)[C@H](C)[C@H]2N(CCCOC(=O)Nc3ccccc3OC)C(=O)O[C@]12C
- MIC (Streptococcus pyogenes): < 0.03 µg/mL
- MIC (Streptococcus agalactiae [1]): 0.5 µg/mL (≈ 0.597 µM)
- MIC (Streptococcus agalactiae [2]): < 0.03 µg/mL
- MIC (Streptococcus pneumoniae [3]): 0.125 µg/mL (≈ 0.149 µM)
- MIC (Streptococcus pneumoniae [4]): 0.125 µg/mL (≈ 0.149 µM)
- MIC (Streptococcus pneumoniae [5]): 0.125 µg/mL (≈ 0.149 µM)
- MIC [6]: 0.125 µg/mL (≈ 0.149 µM)
- MIC [7]: 0.25 µg/mL (≈ 0.298 µM)
- MIC [8]: 0.06 µg/mL (≈ 0.0716 µM)
- MIC [9]: 0.125 µg/mL (≈ 0.149 µM)
- MIC [10]: 0.06 µg/mL (≈ 0.0716 µM)
- MIC [11]: 0.06 µg/mL (≈ 0.0716 µM)
- MIC (Moraxella catarrhalis [12]): 11.1 µg/mL (≈ 13.2 µM)
- MIC (Moraxella catarrhalis [13]): 0.41 µg/mL (≈ 0.489 µM)
- MIC (Moraxella catarrhalis [14]): 0.125 µg/mL (≈ 0.149 µM)
- MIC (Haemophilus influenzae [15]): 8 µg/mL (≈ 9.55 µM)
- CC50 at 48 h [17]: 83.8 µM

SMILES: CC[C@H]1OC(=O)[C@H](C)C(=O)[C@H](C)[C@@H](O[C@@H]2O[C@H](C)C[C@H](N(C)C)[C@H]2O)[C@](C)(OC)C[C@@H](C)C(=O)[C@H](C)[C@H]2N(CCCOC(=O)Nc3ccc(C(F)(F)F)cc3)C(=O)O[C@]12C
- MIC (Streptococcus pyogenes): < 0.03 µg/mL
- MIC (Streptococcus agalactiae [1]): 0.5 µg/mL (≈ 0.583 µM)
- MIC (Streptococcus agalactiae [2]): < 0.03 µg/mL
- MIC (Streptococcus pneumoniae [3]): 0.125 µg/mL (≈ 0.146 µM)
- MIC (Streptococcus pneumoniae [4]): 0.125 µg/mL (≈ 0.146 µM)
- MIC (Streptococcus pneumoniae [5]): 0.125 µg/mL (≈ 0.146 µM)
- MIC [6]: 0.125 µg/mL (≈ 0.146 µM)
- MIC [7]: 0.5 µg/mL (≈ 0.583 µM)
- MIC [8]: 0.06 µg/mL (≈ 0.0699 µM)
- MIC [9]: 0.25 µg/mL (≈ 0.291 µM)
- MIC [10]: 0.125 µg/mL (≈ 0.146 µM)
- MIC [11]: 0.06 µg/mL (≈ 0.0699 µM)
- MIC (Moraxella catarrhalis [14]): 0.06 µg/mL (≈ 0.0699 µM)
- MIC (Haemophilus influenzae [15]): 4 µg/mL (≈ 4.66 µM)
- CC50 at 48 h [17]: 73.8 µM
